{"source": "patent US20200289552A1", "about": "“SOLID COMPOSITION COMPRISING IODINE AGENT AND SODIUM CHLORIDE HAVING IMPROVED WATER SOLUBILITY, AND ANTIVIRAL AND ANTIMICROBIAL COMPOSITION FOR EYE, ORAL CAVITY, NASAL CAVITY OR INHALATION CONTAINING AQUEOUS SOLUTION THEREOF” (FLUCHEM LTD, priority 2017, published 2020)", "origin": "cited, not measured here", "key": {"[1]": {"system": "highly pathogenic H5N1 and low pathogenic H5N3, H7N7, and H9N7"}, "[2]": {"conditions": "U.S. patent Ser. No. 04/950,653"}, "[3]": {"conditions": "stored sealed, room temperature and 65° C., for 3 years"}}, "data": [{"substance": "povidone iodine", "values": [{"measurement": "time to inactivate viruses below a detection limit", "setting": "[1]", "result": "less than 10 seconds"}, {"measurement": "time to dissolve in water", "setting": "[2]", "result": 45, "unit": "min"}, {"measurement": "effective iodine loss", "setting": "[3]", "result": "about 0.5%"}]}]}
